Results on 36 substances are retold here after US8969516B2, “Method of hydrolysis of peptide bond” (priority 2006, dated 2015).

The data set can be described thus: MALDI-TOF screening of Ni^2+ dependent hydrolysis in a combinatorial peptide library. It is filed as physicochemical. To be noted: Ni^2+ 2 mM, pH 8.2, 10 mM Tris, score=24/tm. A digest of the protocol: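 Sublibraries of Ac-Gly-Ala-Ser/Thr-X-His-Z-Lys-Phe-Leu-NH2, randomized at Z and fixed at X, were hydrolyzed at 1 mM total peptide with 2 mM Ni2+ in 10 mM Tris, pH 8.2, at 37 °C or 45 °C. Cleavage was scored visually in MALDI-TOF spectra at 2, 4, 6 and 8 h.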

The mark [1] stands for this setting: CH3CO-Gly-Ala-Thr-X-His-Z-Lys-Phe-Leu-NH2 library, 37° C.
Where [2] appears, read: CH3CO-Gly-Ala-Thr-X-His-Z-Lys-Phe-Leu-NH2 library, 45° C.
Where [3] appears, read: CH3CO-Gly-Ala-Ser-X-His-Z-Lys-Phe-Leu-NH2 library, 37° C.
Where [4] appears, read: CH3CO-Gly-Ala-Ser-X-His-Z-Lys-Phe-Leu-NH2 library, 45° C.

In the case of Ac-GATMHLKFL-NH2 [TMHL], the “hydrolysis score from MALDI-TOF screening” value (“hydrolysis score” for short) runs as follows: under setting [1], 0 (a score of 0 if no trace of the product of hydrolysis was seen after 8 hours of incubation); under setting [2], 0 (a score of 0 if no trace of the product of hydrolysis was seen after 8 hours of incubation).

With Ac-GASLHFKFL-NH2 [SLHF], the “hydrolysis score” value is reported as 0 (a score of 0 if no trace of the product of hydrolysis was seen after 8 hours of incubation) under setting [3] and 3 (a score of 3 for detection at 8 hours) under setting [4].

With Ac-GATMHWKFL-NH2 [TMHW], the “hydrolysis score” value by setting is: under setting [1], 3 (a score of 3 for detection at 8 hours); under setting [2], 3 (a score of 3 for detection at 8 hours).

Take Ac-GATRHTKFL-NH2 [TRHT]: the “hydrolysis score” value is recorded as 0 (a score of 0 if no trace of the product of hydrolysis was seen after 8 hours of incubation) under setting [1] and 0 (a score of 0 if no trace of the product of hydrolysis was seen after 8 hours of incubation) under setting [2].

For the substance Ac-GATFHFKFL-NH2 [TFHF], the “hydrolysis score” value runs as follows: under setting [1], 0 (a score of 0 if no trace of the product of hydrolysis was seen after 8 hours of incubation); under setting [2], 0 (a score of 0 if no trace of the product of hydrolysis was seen after 8 hours of incubation).

On to Ac-GASRHMKFL-NH2 [SRHM], for which the “hydrolysis score” value under setting [3] was 3 (a score of 3 for detection at 8 hours) and the “hydrolysis score” value under setting [4] is listed as 3 (a score of 3 for detection at 8 hours).

Ac-GASLHMKFL-NH2 [SLHM]: the “hydrolysis score” value under setting [3] was 0 (a score of 0 if no trace of the product of hydrolysis was seen after 8 hours of incubation) and the “hydrolysis score” value under setting [4] is given as 0 (a score of 0 if no trace of the product of hydrolysis was seen after 8 hours of incubation).

Turning to Ac-GATIHWKFL-NH2 [TIHW], the “hydrolysis score” value is given as 3 (a score of 3 for detection at 8 hours) under setting [1] and 3 (a score of 3 for detection at 8 hours) under setting [2].

Regarding Ac-GASVHVKFL-NH2 [SVHV], the “hydrolysis score” value is listed as 0 (a score of 0 if no trace of the product of hydrolysis was seen after 8 hours of incubation) under setting [3] and 3 (a score of 3 for detection at 8 hours) under setting [4].

As to Ac-GATRHWKFL-NH2 [TRHW], the “hydrolysis score” value is on record as 12 (a score of 12, if it was seen to be partially hydrolysed at 2 hours) under setting [1] and 12 (a score of 12, if it was seen to be partially hydrolysed at 2 hours) under setting [2].

On to Ac-GASWHWKFL-NH2 [SWHW], for which the “hydrolysis score” value is, setting by setting: under setting [3], 4 (a score of 4 for detection at 6 hours); under setting [4], 6 (a score of 6 for detection at 4 hours).

For Ac-GATRHYKFL-NH2 [TRHY], the “hydrolysis score” value under setting [1] is on record as 4 (a score of 4 for detection at 6 hours) and the “hydrolysis score” value under setting [2] is reported as 6 (a score of 6 for detection at 4 hours).

In the case of Ac-GASFHKKFL-NH2 [SFHK], the “hydrolysis score” value is, setting by setting: under setting [3], 4 (a score of 4 for detection at 6 hours); under setting [4], 6 (a score of 6 for detection at 4 hours).

As for Ac-GATNHSKFL-NH2 [TNHS], the “hydrolysis score” value reads like this: under setting [1], 0 (a score of 0 if no trace of the product of hydrolysis was seen after 8 hours of incubation); under setting [2], 0 (a score of 0 if no trace of the product of hydrolysis was seen after 8 hours of incubation).

As to Ac-GATPHAKFL-NH2 [TPHA], under setting [2], the “hydrolysis score” value is on record as 0 (a score of 0 if no trace of the product of hydrolysis was seen after 8 hours of incubation).

On to Ac-GATAHAKFL-NH2 [TAHA], for which the “hydrolysis score” value was 0 (a score of 0 if no trace of the product of hydrolysis was seen after 8 hours of incubation) under setting [1] and 0 (a score of 0 if no trace of the product of hydrolysis was seen after 8 hours of incubation) under setting [2].

With Ac-GASHHGKFL-NH2 [SHHG], the “hydrolysis score” value is 3 (a score of 3 for detection at 8 hours) under setting [3] and 0 (a score of 0 if no trace of the product of hydrolysis was seen after 8 hours of incubation) under setting [4].

Regarding Ac-GATSHHKFL-NH2 [TSHH], the “hydrolysis score” value runs as follows: under setting [1], 0 (a score of 0 if no trace of the product of hydrolysis was seen after 8 hours of incubation); under setting [2], 0 (a score of 0 if no trace of the product of hydrolysis was seen after 8 hours of incubation).

On to Ac-GASFHQKFL-NH2 [SFHQ], for which the “hydrolysis score” value was 0 (a score of 0 if no trace of the product of hydrolysis was seen after 8 hours of incubation) under setting [3] and 0 (a score of 0 if no trace of the product of hydrolysis was seen after 8 hours of incubation) under setting [4].

As to Ac-GATIHSKFL-NH2 [TIHS], the “hydrolysis score” value under setting [1] was 0 (a score of 0 if no trace of the product of hydrolysis was seen after 8 hours of incubation) and the “hydrolysis score” value under setting [2] is listed as 0 (a score of 0 if no trace of the product of hydrolysis was seen after 8 hours of incubation).

On to Ac-GATHHSKFL-NH2 [THHS], for which the “hydrolysis score” value reads like this: under setting [1], 0 (a score of 0 if no trace of the product of hydrolysis was seen after 8 hours of incubation); under setting [2], 4 (a score of 4 for detection at 6 hours).

In the case of Ac-GASQHSKFL-NH2 [SQHS], the “hydrolysis score” value under setting [3] is 0 (a score of 0 if no trace of the product of hydrolysis was seen after 8 hours of incubation) and the “hydrolysis score” value under setting [4] is 0 (a score of 0 if no trace of the product of hydrolysis was seen after 8 hours of incubation).

As for Ac-GATQHPKFL-NH2 [TQHP], the “hydrolysis score” value under setting [1] is 0 (a score of 0 if no trace of the product of hydrolysis was seen after 8 hours of incubation) and the “hydrolysis score” value under setting [2] is on record as 0 (a score of 0 if no trace of the product of hydrolysis was seen after 8 hours of incubation).

On to Ac-GASRHTKFL-NH2 [SRHT], for which the “hydrolysis score” value reads like this: under setting [3], 0 (a score of 0 if no trace of the product of hydrolysis was seen after 8 hours of incubation); under setting [4], 3 (a score of 3 for detection at 8 hours).

For the substance Ac-GASQHVKFL-NH2 [SQHV], the “hydrolysis score” value under setting [3] was 0 (a score of 0 if no trace of the product of hydrolysis was seen after 8 hours of incubation) and the “hydrolysis score” value under setting [4] was 4 (a score of 4 for detection at 6 hours).

In the case of Ac-GATNHFKFL-NH2 [TNHF], the “hydrolysis score” value under setting [1] is 0 (a score of 0 if no trace of the product of hydrolysis was seen after 8 hours of incubation) and the “hydrolysis score” value under setting [2] is 0 (a score of 0 if no trace of the product of hydrolysis was seen after 8 hours of incubation).

With Ac-GATKHFKFL-NH2 [TKHF], the “hydrolysis score” value under setting [1] is listed as 3 (a score of 3 for detection at 8 hours) and the “hydrolysis score” value under setting [2] is reported as 6 (a score of 6 for detection at 4 hours).

Regarding Ac-GATWHWKFL-NH2 [TWHW], the “hydrolysis score” value is listed as 3 (a score of 3 for detection at 8 hours) under setting [1] and 4 (a score of 4 for detection at 6 hours) under setting [2].

In the case of Ac-GASHHQKFL-NH2 [SHHQ], the “hydrolysis score” value is 0 (a score of 0 if no trace of the product of hydrolysis was seen after 8 hours of incubation) under setting [3] and 0 (a score of 0 if no trace of the product of hydrolysis was seen after 8 hours of incubation) under setting [4].

Regarding Ac-GATQHSKFL-NH2 [TQHS], the “hydrolysis score” value reads like this: under setting [1], 0 (a score of 0 if no trace of the product of hydrolysis was seen after 8 hours of incubation); under setting [2], 0 (a score of 0 if no trace of the product of hydrolysis was seen after 8 hours of incubation).

As for Ac-GASAHLKFL-NH2 [SAHL], the “hydrolysis score” value runs as follows: under setting [3], 0 (a score of 0 if no trace of the product of hydrolysis was seen after 8 hours of incubation); under setting [4], 4 (a score of 4 for detection at 6 hours).

As for Ac-GATYHAKFL-NH2 [TYHA], the “hydrolysis score” value is 0 (a score of 0 if no trace of the product of hydrolysis was seen after 8 hours of incubation) under setting [1] and 0 (a score of 0 if no trace of the product of hydrolysis was seen after 8 hours of incubation) under setting [2].

As for Ac-GASFHFKFL-NH2 [SFHF], the “hydrolysis score” value is 3 (a score of 3 for detection at 8 hours) under setting [3] and 6 (a score of 6 for detection at 4 hours) under setting [4].

On to Ac-GASIHTKFL-NH2 [SIHT], for which the “hydrolysis score” value runs as follows: under setting [3], 0 (a score of 0 if no trace of the product of hydrolysis was seen after 8 hours of incubation); under setting [4], 0 (a score of 0 if no trace of the product of hydrolysis was seen after 8 hours of incubation).

For the substance Ac-GATQHVKFL-NH2 [TQHV], the “hydrolysis score” value is 0 (a score of 0 if no trace of the product of hydrolysis was seen after 8 hours of incubation) under setting [1] and 0 (a score of 0 if no trace of the product of hydrolysis was seen after 8 hours of incubation) under setting [2].

In the case of Ac-GATIHIKFL-NH2 [TIHI], the “hydrolysis score” value runs as follows: under setting [1], 0 (a score of 0 if no trace of the product of hydrolysis was seen after 8 hours of incubation); under setting [2], 0 (a score of 0 if no trace of the product of hydrolysis was seen after 8 hours of incubation).
